Source: patent publication US20100105724A1, “CRYSTALLINE AND AMORPHOUS FORMS OF PALONOSETRON HYDROCHLORIDE” (HELSINN HEALTHCARE SA, priority 2006, published 2010)

Columns and labels:
[1] = Physical stability determination of polymorphs and amorphous phase; type: physicochemical
Description: Physical Stability Determination—The physical stability of the polymorphs was determined by wetting the powders with water, suspending in ethanol, ethyl acetate, and exposing them to 93% relative humidity (RH) and 26% RH. The DSC thermogram and the x-ray diffraction pattern were obtained after a few days to determine if phase changes had occurred. The physical stability of the amorphous phase was determined by equilibrating a sample at 40° C., 75% RH for two weeks.

[2] = biological target: T1, 5-hydroxyltryptamine 3 receptor precursor (5-HT3 receptor) (Homo sapiens, UniProt P46098); conditions: in vitro, literature (Wong 1995; Eglen 1995); cited from earlier work
T1 sequence (P46098 24-478): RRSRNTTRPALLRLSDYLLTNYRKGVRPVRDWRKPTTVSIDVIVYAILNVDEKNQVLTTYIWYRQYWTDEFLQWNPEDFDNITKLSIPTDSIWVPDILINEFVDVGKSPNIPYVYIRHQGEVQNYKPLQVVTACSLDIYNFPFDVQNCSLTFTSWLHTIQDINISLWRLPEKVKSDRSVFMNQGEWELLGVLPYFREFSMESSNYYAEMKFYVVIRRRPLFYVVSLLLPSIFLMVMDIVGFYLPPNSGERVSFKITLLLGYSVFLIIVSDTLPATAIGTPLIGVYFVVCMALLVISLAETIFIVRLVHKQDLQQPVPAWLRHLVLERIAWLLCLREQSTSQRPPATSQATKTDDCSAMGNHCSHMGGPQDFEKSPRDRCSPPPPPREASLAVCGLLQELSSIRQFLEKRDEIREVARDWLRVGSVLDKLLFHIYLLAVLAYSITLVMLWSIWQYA

[3] = system: other receptors such as dopamine receptors; conditions: literature (Wong 1995; Eglen 1995); cited from earlier work
[4] = Hygroscopicity measurement (water absorption at constant relative humidity); type: physicochemical; conditions: for hygroscopicity: humidities up to 82% RH
Description: Hygroscopicity Measurement—Samples of 20-30 mg of the compound were weighed into small weighing bottles with ground glass tops. The bottles were dried in a 60° C. oven for 30 minutes. The samples were cooled in a dessicator containing anhydrous CaSO4 and then transferred to humidity chambers maintained at constant relative humidities with saturated salt solutions. The samples were weighed at different time intervals until equilibrium was reached. The percent moisture absorbed at a given time was calculated as follows: % Weight Change=((Wt−Wo)/Wo)×100 wherein W1=sample weight at given time after exposure to the indicated relative humidity, and Wo=initial sample weight.

For Cl.O=C1c2cccc3c2[C@H](CCC3)CN1[C@@H]1CN2CCC1CC2 [Form II], the “phase change in suspension” value ([1]; suspended in ethanol for one week at ambient temperature (~25° C.)) was “converted to Form I”.

For O=C1c2cccc3c2[C@H](CCC3)CN1[C@@H]1CN2CCC1CC2 (single isomer, unassigned) [Palonosetron], the “affinity as an antagonist for the 5-HT3 receptor” value [2] is given as “high affinity” and the “affinity for other receptors such as dopamine receptors” value [3] is given as “low affinity”.

With Cl.O=C1c2cccc3c2[C@H](CCC3)CN1[C@@H]1CN2CCC1CC2 [amorphous form] the “physical stability at low humidity” value ([1]; 26% RH, two weeks) was “remained amorphous”, the “phase change on equilibration” value ([1]; 40° C., 75% RH, two weeks) was “converted to Form I” and the “solid form after deliquescence at ambient humidity” value ([1]; ambient humidity, subsequent to deliquescence) was “re-solidified as Form II”. The “behaviour on exposure to ambient humidity” value ([1]; removed from the desiccator, ambient humidity) was “deliquesced immediately”.

With Cl.O=C1c2cccc3c2[C@H](CCC3)CN1[C@@H]1CN2CCC1CC2 [Palonosetron hydrochloride, (3aS)-2-[(S)-1-Azabicyclo [2.2.2]oct-3-yl]-2,3,3a,4,5,6-hexahydro-1-oxo-1Hbenz[de] isoquinoline hydrochloride] the “physical change on exposure to humidity” value ([4]; 93% RH, after eight days, hydrochloride) was “liquefies” and the hygroscopicity ([4]; hydrochloride) was “nonhygroscopic”.

Compound Cl.O=C1c2cccc3c2[C@H](CCC3)CN1[C@@H]1CN2CCC1CC2 [Form I] has a Water absorbed ([4]; 50% relative humidity, 1 day) of 0.02 weight %, a Water absorbed ([4]; 50% relative humidity, 4 days) of 0.14 weight % and a Water absorbed ([4]; 50% relative humidity, 8 days) of 0.05 weight %. For the same compound, the Water absorbed ([4]; 75% relative humidity, 1 day) was 0.15 weight %, the Water absorbed ([4]; 75% relative humidity, 4 days) was 0.22 weight % and the Water absorbed ([4]; 75% relative humidity, 8 days) was 0.22 weight %. It also gave a Water absorbed ([4]; 82% relative humidity, 1 day) of 0.14 weight %, a Water absorbed ([4]; 82% relative humidity, 4 days) of 0.25 weight % and a Water absorbed ([4]; 82% relative humidity, 8 days) of 0.54 weight %. For the same compound, the moisture absorbed ([4]; 93% RH, after eight days) was 26%, the “physical change on exposure to humidity” value ([4]; 93% RH, after eight days) was “turning into a paste” and the “physical change on exposure to humidity” value ([4]; 93% RH, two weeks) was “liquefied”. For the same compound, the Water absorbed ([4]; 93% relative humidity, 1 day) was 0.07 weight %, the Water absorbed ([4]; 93% relative humidity, 4 days) was 0.63 weight % and the Water absorbed ([4]; 93% relative humidity, 8 days) was 25.7 weight %. The “physical state of sample” value ([4]; 93% relative humidity, 8 days) was “Semi”, the “Water absorbed (physical state printed)” value ([4]; 93% relative humidity, 15 days) was “Liquid” and the hygroscopicity [4] was “not hygroscopic”. The Water absorbed ([4]; humidities up to 82%, after eight days) was 0.5%, the “physical stability at high humidity” value ([1]; 93% relative humidity, two weeks, ambient temperature) was “deliquesced” and the “physical stability as a suspension” value ([1]; suspension in ethanol) was “stable”. The “physical stability as a suspension” value ([1]; suspension in ethyl acetate) was “stable” and the “physical stability as a suspension” value ([1]; suspension in water) was “stable”.
